Assay results taken from patent US20040071707A1, “Modulation of cell growth” (priority 2000, published 2004).

Test system: HUVEC
Assay: In vitro endothelial cell proliferation assay
Type: cell-based, Human
Conditions: for effect on anti-kringle 2 (7VPA) induced HUVEC proliferation: HUVEC stimulated with 700 nM (or 1400 nM) 7VPA, simultaneous addition
Description: Human umbilical vein endothelial cells (HUVEC) were purchased from Clonetics or isolated from umbilical vein cords by mild collagenase treatment as described and cultured in M199 with Earle's salts (Sigma) with 20% heat inactivated fetal bovine serum (Sigma), 100 IU/mL penicillin 100 μg/mL streptomycin (Gibco), 250 ng/mL fungizone (Gibco), 2 mM glutamine (Gibco), 5 IU/mL heparin (Sigma) and 50 μg/mL ECGS (Technoclone, Vienna, Austria). Human vascular smooth muscle cells (HVSMC) were isolated as described.
3×10^3 cells were plated in 96-well plates and allowed to attach overnight. Growth was arrested by incubation with 100 μL reduced growth medium (M199 with 2% FBS) for 24 h. Thereafter anti-tPA antibodies and other reagents were added to wells. K2P (Reteplase), anti-kringle 2 (7VPA) and anti-finger/EGF antibodies (3VPA and 6VPA) were a gift from Technoclone, Vienna, Austria. Anti-kringle 1 (PAM-2), anti-kringle 2 (ESP1) and anti-protease (374B and ESP2) antibodies were purchased from American Diagnostica, Alpha Labs, UK. D-mannitol and LY294002 were obtained from Sigma. VEGF121 and bFGF were purchased from R&D Systems Inc., UK. Recombinant single chain tPA (rsctPA) was obtained from Boehringher Ingelheim. The mutant alatPA was kindly provided by Prof. Roger Lijnen (Center for Molecular and Vascular Biology, Leuven, Belgium). Aprotinin was purchased from Boehringer Mannheim. The tPA peptides (tPA I and tPA II) corresponding to residues 7-17 and 15-26 respectively were synthesized by the Clinical Sciences Centre peptide synthesis facility at Hammersmith and the ICRF peptide unit. Rp-cAMPS and Lavendustin A were obtained from Calbiochem, UK. After 4 days of incubation cell number was quantified colorimetrically by the addition of 20 μL CellTiter 96 AQueous One Solution Cell Proliferation Assay (Promega) at 492 nm and 620 nm reference filter. Background absorbance was determined with substrate alone and subtracted from all wells.
HUVEC were plated at 1×10^5 cells in 12 well plates overnight. Medium was replaced with reduced growth medium overnight followed by addition of anti-K2 antibody. Control wells contained M199 and 2% FBS alone. After 3 days incubation cells were counted in a hemocytometer.

Row | Compound | effect on anti-kringle 2 (7VPA) induced HUVEC proliferation (4 days) | further results
1 | Nc1ncnc2c1ncn2[C@@H]1O[C@@H]2CO[P@@](O)(=S)O[C@H]2[C@H]1O [Rp-cAMPS, reference compound] | could inhibit | –
2 | angiostatin [reference compound] | – | concentration giving 50% inhibition (HUVEC growth, bFGF 10 ng/mL (FIG. 4B)): 45 µg/mL
3 | aprotinin [reference compound] | could not block | –
4 | O=C(O)c1cc(N(Cc2ccccc2O)Cc2cc(O)ccc2O)ccc1O [Lavendustin A, reference compound] | could inhibit | –
5 | OC[C@@H](O)[C@@H](O)[C@H](O)[C@H](O)CO [mannitol, D-mannitol, reference compound] | – | effect on basal HUVEC/EC growth (substance alone) (M199 with 2% FBS, 4 days, colorimetric): No effect
